In patent publication US12708630B2, “Combined therapy of 4′-thio-5-aza-2′-deoxycytidine and Venetoclax” (PINOTBIO, INC., priority 2021, dated 2026):
Entries after “also recorded” stand apart in the source; their conditions may differ.

Key:
A172 = test: drug activity profiling cytotoxicity; assay type: cell-based; conditions: Homo sapiens, A 172; A172 cell line, CNS (Glioma); read-out: Aza-T-dCyd IC50
Procedure, shortened: (§1)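 In a 200-cell-line screen, the cytotoxic activity of Aza-T-dCyd was determined, with genomic data used alongside to seek biomarkers.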

Cal 27 = test: drug activity profiling cytotoxicity; assay type: cell-based; conditions: Homo sapiens; Cal 27 cell line, Head and Neck; read-out: Aza-T-dCyd IC50
Procedure, shortened: as §1

Hs 766T = test: drug activity profiling cytotoxicity; assay type: cell-based; conditions: Hs766T; Hs 766T cell line, Pancreas; read-out: Aza-T-dCyd IC50
Procedure, shortened: as §1

JeKo-1 = test: drug activity profiling cytotoxicity; assay type: cell-based; conditions: Homo sapiens; JeKo-1 cell line, B-cell lymphoma; read-out: Aza-T-dCyd IC50
Procedure, shortened: as §1

LS411N = test: drug activity profiling cytotoxicity; assay type: cell-based; conditions: Homo sapiens, LS-411N; LS411N cell line, Colon; read-out: Aza-T-dCyd IC50
Procedure, shortened: as §1

SW579 = test: drug activity profiling cytotoxicity; assay type: cell-based; conditions: SW579 cell line, Endocrine (Thyroid); read-out: Aza-T-dCyd IC50
Procedure, shortened: as §1

U-138MG = test: drug activity profiling cytotoxicity; assay type: cell-based; conditions: Homo sapiens, U138-MG; U-138MG cell line, CNS (Glioma); read-out: Aza-T-dCyd IC50
Procedure, shortened: as §1

leukemia cell lines = test: Growth-inhibitory activity on leukemia cell lines (GI50); assay type: cell-based; conditions: leukemia cell lines, 72 hours, range over cell lines; read-out: GI50 values (half maximal growth inhibitory concentrations)
Experimental: The growth-inhibitory activity of Aza-T-dCyd, a DNMT1 inhibitor, was measured in leukemia cell lines to determine its inhibitory effect on cell proliferation.
The growth-inhibitory activity of DNMT1 inhibitors, Aza-T-dCyd and Decitabine, was measured on leukemia cell lines to determine their effect on cell proliferation.

[1] = Pharmacokinetic evaluation in Mice (Table 3); assay type: in vivo; conditions: for AUC(0-inf) / AUC(0-t) / Cmax / Tmax / half-life: mouse, in vivo, Mice; for half-life: read-out: T½ (converted)
Experimental: (§2) Aza-T-dCyd was administered orally and intravenously at various concentrations to Mice, Rats and Dogs to determine the PK profile.

[2] = Pharmacokinetic evaluation in Rat; assay type: in vivo; conditions: for AUC(0-inf) / AUC(0-t) / Cmax / half-life / Tmax: in vivo, Rat; for half-life: read-out: T½ (converted)
Experimental: as §2

OVCAR-3 (ovarian) = OVCAR-3 (ovarian) xenograft model; assay type: in vivo; conditions: NSG mouse, (4) cycles
From the text: The efficacy of Aza-T-dCyd was confirmed by tumor growth curves after administration of Aza-T-dCyd in various solid cancer xenograft models. […]

[3] = Human PK simulation / human dose projection; conditions: 16 mg/day human dose
Experimental: The human dose of NTX-301 should be divided by 3 or 4 to adjust the mouse exposure.
The 96 mg/day must be divided by 3 or 4, resulting in 24 to 32 mg/day.
This was a safe and effective dose in mice.
Furthermore, based on the results of the combination with Venetoclax in the mouse model, an effective dose of 0.5 to 1.0 mg/kg was determined, which translates to a human dose of 8 to 16 mg+Venetoclax.

MV4-11 AML cells = test: MV4-11 AML xenograft implanted subcutaneously, combination with venetoclax; assay type: in vivo, mice; parameters: anti-cancer effect (tumor volume): dose or concentration left out as unconfirmed
Experimental: After establishing a xenograft systemic AML model in which MV4-11 AML cells were implanted subcutaneously in mice, Aza-T-dCyd alone at 2.0 mpk for 1 cycle (5 days on, 2 days off, 5 days on, 9 days off) was administered (PO) or Aza-T-dCyd 0.5, 1.0 or 2.0 mpk plus venetoclax 50 mpk or 100 mpk administered orally (PO) for 1 cycle (venetoclax on for 5 days, off for 2 days, repeated for 3 weeks). Anti-cancer efficacy was determined in disease models in which azacitidine 5.0 mpk was administered intraperitoneally (IP) alone or in combination with optimal dose of azacitidine (2.5 mpk) and venetoclax 50 mpk or 100 mpk as a control.

Question: What does the source list for Nc1ncn([C@H]2CC(O)[C@@H](CO)S2)c(=O)n1 (some centres unmarked) [Aza-T-dCyd, 4′-thio-5-aza-2′-deoxycytidine]?
Answer: IC50 (A172): > 10000 nM; IC50 (Cal 27): 319 nM; IC50 (Hs 766T): 9400 nM; IC50 (JeKo-1): 38.5 nM; IC50 (LS411N): 265 nM; IC50 (SW579): 1050 nM; IC50 (U-138MG): > 10000 nM; GI50 (leukemia cell lines): 14 to 690 nM; oral bioavailability ([1]; mice): orally bioavailable; AUC(0-inf) ([1]; Table 3, IV 1 mg/kg): 269 ng·h/mL; AUC(0-t) ([1]; Table 3, IV 1 mg/kg): 257 ng·h/mL; Cmax ([1]; Table 3, IV 1 mg/kg): 341 ng/mL; Tmax ([1]; Table 3, IV 1 mg/kg): 4.98 min; half-life ([1]; Table 3, IV 1 mg/kg): 30.2 min; AUC(0-inf) ([1]; Table 3, PO 0.5 mg/kg): 68.5 ng·h/mL; AUC(0-t) ([1]; Table 3, PO 0.5 mg/kg): 62.4 ng·h/mL; Cmax ([1]; Table 3, PO 0.5 mg/kg): 51.8 ng/mL; Tmax ([1]; Table 3, PO 0.5 mg/kg): 18 min; half-life ([1]; Table 3, PO 0.5 mg/kg): 42.1 min; AUC(0-inf) ([1]; Table 3, PO 1 mg/kg): 112 ng·h/mL; AUC(0-t) ([1]; Table 3, PO 1 mg/kg): 106 ng·h/mL; Cmax ([1]; Table 3, PO 1 mg/kg): 103 ng/mL; Tmax ([1]; Table 3, PO 1 mg/kg): 18 min; half-life ([1]; Table 3, PO 1 mg/kg): 37.7 min; AUC(0-inf) ([1]; Table 3, PO 3 mg/kg): 931 ng·h/mL; AUC(0-t) ([1]; Table 3, PO 3 mg/kg): 919 ng·h/mL; Cmax ([1]; Table 3, PO 3 mg/kg): 576 ng/mL; Tmax ([1]; Table 3, PO 3 mg/kg): 27 min; half-life ([1]; Table 3, PO 3 mg/kg): 49.4 min; AUC(0-inf) ([1]; Table 3, PO 10 mg/kg): 2600 ng·h/mL; AUC(0-t) ([1]; Table 3, PO 10 mg/kg): 2580 ng·h/mL; Cmax ([1]; Table 3, PO 10 mg/kg): 1930 ng/mL; Tmax ([1]; Table 3, PO 10 mg/kg): 27 min; half-life ([1]; Table 3, PO 10 mg/kg): 66.6 min; AUC(0-inf) ([2]; IV 1 mg/kg): 1900 ng·h/mL; AUC(0-t) ([2]; IV 1 mg/kg): 1330 ng·h/mL; Cmax ([2]; IV 1 mg/kg): 444 ng/mL; half-life ([2]; IV 1 mg/kg): 301 min; AUC(0-inf) ([2]; PO 0.5 mg/kg): 303 ng·h/mL; AUC(0-t) ([2]; PO 0.5 mg/kg): 190 ng·h/mL; Cmax ([2]; PO 0.5 mg/kg): 33.8 ng/mL; Tmax ([2]; PO 0.5 mg/kg): 120 min; half-life ([2]; PO 0.5 mg/kg): 314 min; AUC(0-inf) ([2]; PO 1 mg/kg): 790 ng·h/mL; AUC(0-t) ([2]; PO 1 mg/kg): 459 ng·h/mL; Cmax ([2]; PO 1 mg/kg): 81.9 ng/mL; Tmax ([2]; PO 1 mg/kg): 70.2 min; half-life ([2]; PO 1 mg/kg): 378 min; AUC(0-inf) ([2]; PO 3 mg/kg): 2800 ng·h/mL; AUC(0-t) ([2]; PO 3 mg/kg): 2780 ng·h/mL; Cmax ([2]; PO 3 mg/kg): 488 ng/mL; Tmax ([2]; PO 3 mg/kg): 49.8 min; half-life ([2]; PO 3 mg/kg): 207 min; AUC(0-inf) ([2]; PO 10 mg/kg): 9240 ng·h/mL; AUC(0-t) ([2]; PO 10 mg/kg): 9200 ng·h/mL; Cmax ([2]; PO 10 mg/kg): 1320 ng/mL; Tmax ([2]; PO 10 mg/kg): 120 min; half-life ([2]; PO 10 mg/kg): 177 min; oral bioavailability ([2]; rats): orally bioavailable; Optimal T/C (%) (test/control) (OVCAR-3 (ovarian); 0.5 mg/kg): 40%; Optimal T/C (%) (test/control) (OVCAR-3 (ovarian); 1 mg/kg): 4%; human AUC converted to the mouse AUC value (factor of 3-4) [3]: 150 to 200 ng·h/mL; anti-cancer effect (tumor volume) (MV4-11 AML cells; Aza-T-dCyd 0.5 mpk with venetoclax, FIGS. 30 and 31): complete tumor regression; anti-cancer efficacy of monotherapy versus Azacytidine/Venetoclax (MV4-11 AML cells; Aza-T-dCyd 2.0 mpk alone, FIGS. 28 to 33): as effective as the Azacytidine/Venetoclax group; also recorded: anti-cancer efficacy equivalent to or superior to that of Azacytidine/Venetoclax combination; anti-cancer effect (tumor volume), single agent (MV4-11 AML cells; administered alone (Aza-T-dCyd 2 mpk), FIGS. 30 and 31, listed as NTX-301): sufficiently working; also recorded: sufficiently anti-tumorigenic
